Article PMC4595834, “Comparison of carbon-sulfur and carbon-amine bond in therapeutic drug: 4β-S-aromatic heterocyclic podophyllum derivatives display antitumor activity” (Scientific Reports, 2015)
Like-named read-outs stand apart in the source and are kept apart here.

Columns and labels:
[1] = MTT cytotoxicity assay, normal hepatocyte HL-7702; assay type: cell-based; details: HL-7702 cells (normal hepatocyte cell line), normal human hepatocyte cell line, drug exposure 48 h, mean ± SD (n = 3), read-out: Cytotoxic activity (IC50) HL-7702
Method: (§1) Cytotoxicity of the podophyllum derivatives were determined by reading the absorbance at 492 nm on a multiplate reader (Thermo Fisher Scientific, Multiskan MK3). Cell cycle analysis and apoptosis analysis were analyzed by flow cytometry (Accuri C6, BD). Immunofluorescence images were recorded using laser scanning microscope (Perkin-Elmer & Olympus, UltraView VoX & Ix81). The gel for the decatenation of kDNA by Topoisomerase II study was photographed with UV illumination, Tanon 1600 (Tanon Science & Technology Co., Ltd., Shanghai). The nitrocellulose blotting membrane for western blot analysis was visualized using X-ray film processor and X-ray film, Fujifilm SUPER RX-N-C.
(§2) Cytotoxicity assay was performed on human lung adenocarcinoma epithelial cell line (A549), henrietta lacks strain of cancer cells (HeLa), human gastric carcinoma cell line (BGC 823), and normal human hepatocyte cell line (HL-7702). Cells (3500–13,000) in a 100 μL culture medium per well were seeded into 96-well microtest plates (Falcon, CA). A549 cell lines, HeLa cell lines and HL-7702 cell lines were cultured in DMEM supplemented with 10% CS, 100 mg/L penicillin G, 100 mg/L streptomycin. BGC 823 cell lines were cultured in RPMI medium 1640 supplemented with 10% CS, 100 mg/L penicillin G, and 100 mg/L streptomycin. The cells were incubated at 37 °C, in a humidified atmosphere with 5% CO2 for 48 h. For all cell lines, the microculture tetrazolium [3-(4, 5-dimethylthiazol-2-yl)-2, 5-diphenyltetrazolium bromide, MTT; Sigma, St. Louis, MO] assay was performed to measure the cytotoxic effects. Drug stock solutions (the each drug concentration was 0.5, 1, 10, 20, 50, 100, 200, and 500 μM, respectively) were prepared in DMSO and the final solvent concentration was ≤ 2% DMSO (v/v), a concentration without effect on cell replication. Initial seeding densities varied among the cell lines to ensure a final absorbance reading in control (untreated) cultures in the range 0.6–0.8 A492 units. Drug exposure was for 2 days, and the IC50 value, the drug concentration that reduced the absorbance by 50%, was interpolated from dose-response data. Each test was performed in triplicate, and absorbance readings varied no more than 5%. Data presented as means ± standard deviation (SD). Statistical analyses were performed by the analysis of variance (ANOVA). All statistical analyses were performed using Origin version 8.0 ([…], OriginLab Corp., Northampton, MA, USA). Sigmoidal dose responses and non-linear regression analyses were undertaken to identify half-maximal concentrations for each of the drugs. To evaluate differences in IC50 concentrations, analysis of variance combined with Tukey’s multiple range test was used.

[2] = tested on: BGC-823 cells; assay: MTT cytotoxicity assay, BGC-823; assay type: cell-based, human; details: Homo sapiens, BGC-823; MTT, drug exposure 48 h, mean ± SD (n = 3); read-out: Cytotoxic activity (IC50) BGC-823
Method: as §1, §2

[3] = tested on: HeLa cells; assay: MTT cytotoxicity assay, HeLa; assay type: cell-based, human; details: Homo sapiens, HeLa; MTT, drug exposure 48 h, mean ± SD (n = 3); read-out: Cytotoxic activity (IC50) HeLa
Method: as §1, §2

[4] = tested on: A549 cells; assay: MTT cytotoxicity assay, A549; assay type: cell-based, human; details: MTT, drug exposure 48 h, mean ± SD (n = 3), read-out: Cytotoxic activity (IC50) A549
Method: as §1, §2

[5] = tested on: HeLa cells; assay: Western blot of apoptosis pathway proteins in HeLa cells; assay type: cell-based, human; details: 1 μM, 0-48 h
Method: Cells were lysed by adding 100 μL of RIPA buffer (50 mM Tris, pH 8.0, 150 mM NaCl, 1% TX-100, 0.5% sodium deoxycholate, 0.1% SDS) with 1% Protease Inhibitor PMSF. Each sample was then vigorously vortexed twice for 15 seconds, with a 30-minute incubation on ice following each agitation. The cellular debris was pelleted (12,000 rpm, 10 min), and then 100 μL of the protein suspension was transferred to fresh 0.5 mL tubes. The protein levels were quantified using a standard BCA (Thermo Scientific), after which the samples were diluted with deionized water to achieve equal protein concentrations for all samples. Prior to analyzing the samples, 5 × Loading buffer (350 mM Tris, pH 6.8, 12% SDS, 0.012% bromophenol blue, 47% glycerol) with 5% β-mercaptoethanol was added to each sample to achieve a final 1 × concentration, after which the samples were incubated at 95 °C for 10 minutes to denature the protein samples. 20–30 μg of protein was added to and run on a 15-well 4–20% Tris-HCl gel. The gel was equilibrated buffer (39 mM glycine, 48 mM, 0.037 g/L SDS, 200 mL/L methanol) for 5 minutes, then the protein were transferred to a PVDF membrane, which was incubated with 5% fetal bovine serum in TBST (20 mM Tris-HCl, pH 8.0, 150 mM, 0.5 mL/L Tween-20) for 1 h to block non-specific binding, and then probed for the primary antibody at a 1:1000 dilution with a blocking agent in TBST for 1 h at room temperature. The blot was washed with TBST, and then probed with a secondary antibody in TBST for 1 hour at room temperature. The blot was washed with TBST, and then The ECL detection kit (Millipore) was added to catalyze oxidation of luminol to emit chemiluminescence, and the membrane was visualized using X-ray film processor and X-ray film (Fujifilm SUPER RX-N-C).

| SMILES | IC50 at 48 h [1] | IC50 [2] | IC50 [3] | IC50 ([4]; Homo sapiens, A549, 48 h) | activation of ATM, ATR, caspase-8, 9 and 3 [5] | IC50 [4] |
| --- | --- | --- | --- | --- | --- | --- |
| COc1cc([C@@H]2c3cc4c(cc3[C@@H](Sc3nc5ccccc5s3)[C@H]3COC(=O)[C@H]23)OCO4)cc(OC)c1OC [Compound 5S, 4β-S-(benzothiazole-2)-4-deoxy-podophyllotoxin] | 31.8 ± 1.62 µM | 1.04 ± 0.13 µM | 0.97 ± 0.12 µM | 11.1 ± 1.71 µM | – | – |
| COc1cc([C@@H]2c3cc4c(cc3[C@@H](Nc3nc[nH]n3)[C@H]3COC(=O)[C@H]23)OCO4)cc(OC)c1O [Compound 1′N, 4β-NH-(1,2,4-trizole-3)-4-deoxy-4′-demethyl-podophyllotoxin] | 38.6 ± 2.52 µM | 15.6 ± 0.41 µM | 4.36 ± 0.42 µM | 4.22 ± 0.43 µM | significantly weaker signal | – |
| COc1cc([C@@H]2c3cc4c(cc3[C@@H](Nc3ncccn3)[C@H]3COC(=O)[C@H]23)OCO4)cc(OC)c1O [4′N, 4β-NH-(pyrimidine-2)-4-deoxy-4′-demethyl-podophyllotoxin] | 41.8 ± 1.75 µM | 64.2 ± 4.43 µM | 44.4 ± 2.37 µM | 70.4 ± 3.92 µM | – | – |
| COc1cc([C@@H]2c3cc4c(cc3[C@@H](Nc3nncs3)[C@H]3COC(=O)[C@H]23)OCO4)cc(OC)c1OC [Compound 2N, 4β-NH-(1,3,4-thiodiazole-2)-4-deoxy-podophyllotoxin] | 18.7 ± 3.19 µM | 2.33 ± 0.24 µM | 6.33 ± 0.36 µM | 12.5 ± 0.55 µM | – | – |
| COc1cc([C@@H]2c3cc4c(cc3[C@@H](O[C@@H]3O[C@@H]5CO[C@@H](C)O[C@H]5[C@H](O)[C@H]3O)[C@H]3COC(=O)[C@H]23)OCO4)cc(OC)c1O [etoposide, reference compound] | 24.6 ± 3.82 µM | 20.5 ± 2.55 µM | 59.4 ± 2.45 µM | – | – | 20.1 ± 1.95 µM |
| COc1cc([C@@H]2c3cc4c(cc3[C@@H](Nc3ccccn3)[C@H]3COC(=O)[C@H]23)OCO4)cc(OC)c1OC [Compound 3N, 4β-NH-(pyridine-2)-4-deoxy-podophyllotoxin] | 28.2 ± 2.58 µM | 14.3 ± 3.22 µM | 13.7 ± 2.13 µM | 28.2 ± 2.58 µM | – | – |
| COc1cc([C@@H]2c3cc4c(cc3[C@@H](Sc3nncs3)[C@H]3COC(=O)[C@H]23)OCO4)cc(OC)c1OC [Compound 2S] | 36.2 ± 3.81 µM | 0.31 ± 0.02 µM | 1.25 ± 0.36 µM | 1.26 ± 0.1 µM | – | – |
| COc1cc([C@@H]2c3cc4c(cc3[C@@H](Sc3ncnc5nc[nH]c35)[C@H]3COC(=O)[C@H]23)OCO4)cc(OC)c1OC [Compound 6S, 4β-S-(purine-6)-4-deoxy-podophyllotoxin] | 20.6 ± 1.38 µM | 11.3 ± 1.71 µM | 1.21 ± 0.13 µM | 0.57 ± 0.22 µM | – | – |
| COc1cc([C@@H]2c3cc4c(cc3[C@@H](Nc3nc5ccccc5s3)[C@H]3COC(=O)[C@H]23)OCO4)cc(OC)c1OC [Compound 5N] | 5.33 ± 0.14 µM | 13.2 ± 0.86 µM | 2.32 ± 0.28 µM | 15.2 ± 0.43 µM | – | – |
| COc1cc([C@@H]2c3cc4c(cc3[C@@H](Nc3ncccn3)[C@H]3COC(=O)[C@H]23)OCO4)cc(OC)c1OC [Compound 4N, 4β-NH-(pyrimidine-2)-4-deoxy-podophyllotoxin] | 47.3 ± 2.71 µM | 63.6 ± 3.77 µM | 26.4 ± 1.52 µM | 59.6 ± 3.48 µM | – | – |
